# Results reported in US20050004018A1, “Use of antitumoral compound in cancer therapy” (priority 2001, published 2005).
# Read-outs that look alike come from different tables or passages of the source.
# How the values were obtained:
# cancer patients [1] = details: cited from earlier work
# cancer patients [2] = test: phase II programme, 24 hour every 3 weeks schedule; type: in vivo, human
# Protocol: (§1) Two schedules (24 hour every 3 weeks and 3 hour every 3 weeks) reached the phase II programme. The phase II programme confirmed the activity against soft tissue sarcoma and ovarian cancer. However, the recommended starting dose for the 3 hour schedule had to be reduced because of serious toxicity. The recommended dose for the 24 hour schedule was 1500 μg /m^2 and the recommended dose for the 3 hour schedule is at present 1300 μg/m^2.
# The 3 hour every three weeks schedule has the signifcant advantage of being more confortable for the patient because it reduces the time being spent at the hospital for infusion and monitoring, in particular avoiding overnight stay.
# human tumor xenografts = details: broad range of in vivo tumor models, including human tumor xenografts in nude mice; cited from earlier work
# rats = details: single or fractionated dose, intravenous; cited from earlier work
# human progenitor cells = details: cited from earlier work
# cynomolgus monkeys = details: cited from earlier work
# cancer patients [3] = details: cited from earlier work; remark: listed apart in the source
# [4] = tested on: soft tissue sarcoma cell lines; details: several soft tissue sarcoma cell lines; cited from earlier work
# cancer patients [5] = details: cited from earlier work; remark: listed apart in the source
# cancer patients [6] = details: cited from earlier work; remark: listed apart in the source
# mice = details: single or fractionated dose, intravenous; cited from earlier work
# cancer patients [7] = test: phase II programme, 3 hour every 3 weeks schedule; type: in vivo, human
# Protocol: as §1
# Serious increases of transaminases (grade 3-4) were more frequent with the 3 hour schedule than with the 24 hour schedule. […] This toxicity has improved with the amendment that reduces the starting dose to 1300 (grade 3 and 4 ALT in 38% and 8.5% of patients), although it would be desirable to reduce it further. Cholestasis is less severe and less frequent observing grade 1, 2 and 3 alkaline phosphatase in 50.4%, 6.5% and 1.7% (leading to an overall 58.6% that compares similarly with 57.7% over 24 hours) of patients. […] An infrequent but important toxicity was the renal toxicity, represented by creatinine abnormalities, that is also higher than in the 24 hour schedule. […]
# [8] = % of treatment courses at the RD
# [9] = 24 hour infusion, worst grade per patient
# [10] = 24 h schedule every three weeks
# [11] = Per patient (24 h), number (percent)
# [12] = 1 hr infusion days 1-5 every 3 weeks
# [13] = 3 hour infusion, worst grade per patient
# [14] = Per patient (3 h), number (percent)
# [15] = starting dose reduced to 1300, % of patients
substance,measurement,setting,value
ecteinascidin 743 [ET-743],MTD,cancer patients [1]; 3-hr infusion every 3 weeks,1800 μg/M^2
same,RD for Phase II studies,cancer patients [1]; 3-hr infusion every 3 weeks,1650 μg/M^2
same,increases of bilirubin G2 or greater,cancer patients [1]; [8],9%
same,"Alk Phosph, NCI-CTC Grade 1",cancer patients [2]; [9],149 (46.7) Number of patients (%)
same,"Alk Phosph, NCI-CTC Grade 2",cancer patients [2]; [9],29 (9.1) Number of patients (%)
same,"Alk Phosph, NCI-CTC Grade 3",cancer patients [2]; [9],6 (1.9) Number of patients (%)
same,"Bilirubin, NCI-CTC Grade 1",cancer patients [2]; [9],49 (15.3) Number of patients (%)
same,"Bilirubin, NCI-CTC Grade 2",cancer patients [2]; [9],23 (6.9) Number of patients (%)
same,"Bilirubin, NCI-CTC Grade 3",cancer patients [2]; [9],4 (1.3) Number of patients (%)
same,"Gamma GT, NCI-CTC Grade 1",cancer patients [2]; [9],25 (22.9) Number of patients (%)
same,"Gamma GT, NCI-CTC Grade 2",cancer patients [2]; [9],29 (26.6) Number of patients (%)
same,"Gamma GT, NCI-CTC Grade 3",cancer patients [2]; [9],32 (29.4) Number of patients (%)
same,"Gamma GT, NCI-CTC Grade 4",cancer patients [2]; [9],2 (1.8) Number of patients (%)
same,"Hemoglobin, NCI-CTC Grade 0-1",cancer patients [2]; [9],165 (51.6) Number of patients (%)
same,"Hemoglobin, NCI-CTC Grade 2",cancer patients [2]; [9],111 (34.7) Number of patients (%)
same,"Hemoglobin, NCI-CTC Grade 3",cancer patients [2]; [9],33 (10.3) Number of patients (%)
same,"Hemoglobin, NCI-CTC Grade 4",cancer patients [2]; [9],11 (3.4) Number of patients (%)
same,"Neutrophils, NCI-CTC Grade 0-1",cancer patients [2]; [9],103 (32.3) Number of patients (%)
same,"Neutrophils, NCI-CTC Grade 2",cancer patients [2]; [9],54 (16.9) Number of patients (%)
same,"Neutrophils, NCI-CTC Grade 3",cancer patients [2]; [9],92 (28.8) Number of patients (%)
same,"Neutrophils, NCI-CTC Grade 4",cancer patients [2]; [9],70 (21.9) Number of patients (%)
same,"Platelets, NCI-CTC Grade 0-1",cancer patients [2]; [9],260 (81.5) Number of patients (%)
same,"Platelets, NCI-CTC Grade 2",cancer patients [2]; [9],17 (5.3) Number of patients (%)
same,"Platelets, NCI-CTC Grade 3",cancer patients [2]; [9],35 (11.0) Number of patients (%)
same,"Platelets, NCI-CTC Grade 4",cancer patients [2]; [9],7 (2.2) Number of patients (%)
same,"SGOT/AST, NCI-CTC Grade 1",cancer patients [2]; [9],74 (23.2) Number of patients (%)
same,"SGOT/AST, NCI-CTC Grade 2",cancer patients [2]; [9],88 (27.6) Number of patients (%)
same,"SGOT/AST, NCI-CTC Grade 3",cancer patients [2]; [9],120 (37.6) Number of patients (%)
same,"SGOT/AST, NCI-CTC Grade 4",cancer patients [2]; [9],16 (5.0) Number of patients (%)
same,"SGPT/ALT, NCI-CTC Grade 1",cancer patients [2]; [9],62 (19.4) Number of patients (%)
same,"SGPT/ALT, NCI-CTC Grade 2",cancer patients [2]; [9],83 (25.9) Number of patients (%)
same,"SGPT/ALT, NCI-CTC Grade 3",cancer patients [2]; [9],127 (39.7) Number of patients (%)
same,"SGPT/ALT, NCI-CTC Grade 4",cancer patients [2]; [9],30 (9.4) Number of patients (%)
same,recommended dose,"cancer patients [2]; 24 hour schedule, phase II",1500 μg /m^2
same,Grade 3-4 ALT,cancer patients [2]; [10],49.1%
same,Grade 3-4 Bilirubin,cancer patients [2]; [10],1.3%
same,Grade 3-4 Creatinine,cancer patients [2]; [10],0.7%
same,Grade 3-4 Creatinine Kinase,cancer patients [2]; [10],2.2%
same,Grade 3-4 Hemoglobin,cancer patients [2]; [10],13.7%
same,Grade 3-4 Neutrophils,cancer patients [2]; [10],50.7%
same,Grade 3-4 Platelets,cancer patients [2]; [10],13.2%
same,"Creatinine abnormalities, NCI-CTC Grade 1",cancer patients [2]; [11],76 (23.9)
same,"Creatinine abnormalities, NCI-CTC Grade 2",cancer patients [2]; [11],19 (6.0)
same,"Creatinine abnormalities, NCI-CTC Grade 3",cancer patients [2]; [11],3 (0.9)
same,"Creatinine abnormalities, NCI-CTC Grade 4",cancer patients [2]; [11],2 (0.6)
same,Grades 1-3 of bilirubin,"cancer patients [2]; over 24 hours, % of patients",23.8%
same,alkaline phosphatase overall,"cancer patients [2]; over 24 hours, % of patients",57.7%
same,antitumor activity in vivo,human tumor xenografts,Potent antitumor activity
same,toxicity,rats,reversible hematological and hepatic toxicity
same,sensitivity of progenitor cells,human progenitor cells,equal sensitivity of erythropoid and myeloid cells
same,toxicity,cynomolgus monkeys; fractionated dosing,only minor toxicity
same,toxicity,cynomolgus monkeys; single doses,"hepatic and hematological toxicity, emesis and diarrhoea"
same,MTD,cancer patients [3]; [12],380 μg/m^2/day
same,RD,cancer patients [3]; [12],325 μg/m^2/day
same,cycles delayed,cancer patients [3]; at 325 μg/m^2/day (RD),59%
same,median day of recovery to grade 1 for neutropenia,cancer patients [3]; at 325 μg/m^2/day (RD),28 days
same,patients who developed DLT,cancer patients [3]; at 380 μg/m^2/day (MTD),3 patients
same,"Reversible grade 3 transaminases, cycles","cancer patients [3]; at the recommended dose, % of cycles",14%
same,"Reversible grade 3 transaminases, patients","cancer patients [3]; at the recommended dose, % of patients",31%
same,IC50,[4],< 1 pM
same,MTD,cancer patients [5]; 72 hr infusion every 3 weeks,1200 μg/M^2
same,RD,cancer patients [5]; 72 hr infusion every 3 weeks,1050 μg/M^2
same,reversible grade 4 transaminases elevation,cancer patients [5]; at 1200 μg/M^2 (MTD),2 out of 9
same,grade 3 hypertransaminasemia,"cancer patients [5]; at the RD (1050 μg/M^2), % of patients",50%
same,grade 4 hypertransaminasemia,cancer patients [5]; at the RD (1050 μg/M^2),there was not any grade 4 hypertransaminasemia
same,DLT (dose limiting toxicity),cancer patients [6]; 24hr infusion every 3 weeks,hematotoxicity
same,MTD (maximum tolerated dose),cancer patients [6]; 24hr infusion every 3 weeks,1800 μg/m^2
same,RD (recommended dose),cancer patients [6]; 24hr infusion every 3 weeks,1500 μg/m^2
same,Grade 2 or greater hyperbilirubinemia,cancer patients [6]; [8],30%
same,"Grade 3 or 4 transaminases, cycles","cancer patients [6]; at the RD, % of cycles",38%
same,"Grade 3 or 4 transaminases, patients","cancer patients [6]; at the RD, % of patients",68%
same,toxicity,mice,reversible hematological and hepatic toxicity
same,"Alk Phosph, NCI-CTC Grade 1",cancer patients [7]; [13],115 (50.4) Number of patients (%)
same,"Alk Phosph, NCI-CTC Grade 2",cancer patients [7]; [13],15 (6.5) Number of patients (%)
same,"Alk Phosph, NCI-CTC Grade 3",cancer patients [7]; [13],4 (1.7) Number of patients (%)
same,"Alk Phosph, NCI-CTC Grade 4",cancer patients [7]; [13],2 (0.8) Number of patients (%)
same,"Bilirubin, NCI-CTC Grade 1",cancer patients [7]; [13],59 (25.8) Number of patients (%)
same,"Bilirubin, NCI-CTC Grade 2",cancer patients [7]; [13],38 (16.6) Number of patients (%)
same,"Bilirubin, NCI-CTC Grade 3",cancer patients [7]; [13],6 (2.6) Number of patients (%)
same,"Bilirubin, NCI-CTC Grade 4",cancer patients [7]; [13],0 ^ Number of patients (%)
same,"Hemoglobin, NCI-CTC Grade 0-1",cancer patients [7]; [13],132 (55) Number of patients (%)
same,"Hemoglobin, NCI-CTC Grade 2",cancer patients [7]; [13],80 (33.4) Number of patients (%)
same,"Hemoglobin, NCI-CTC Grade 3",cancer patients [7]; [13],23 (9.6) Number of patients (%)
same,"Hemoglobin, NCI-CTC Grade 4",cancer patients [7]; [13],4 (1.6) Number of patients (%)
same,"Neutrophils, NCI-CTC Grade 0-1",cancer patients [7]; [13],59 (24.5) Number of patients (%)
same,"Neutrophils, NCI-CTC Grade 2",cancer patients [7]; [13],42 (17.4) Number of patients (%)
same,"Neutrophils, NCI-CTC Grade 3",cancer patients [7]; [13],57 (23.6) Number of patients (%)
same,"Neutrophils, NCI-CTC Grade 4",cancer patients [7]; [13],85 (35.2) Number of patients (%)
same,"Platelets, NCI-CTC Grade 0-1",cancer patients [7]; [13],170 (69.1) Number of patients (%)
same,"Platelets, NCI-CTC Grade 2",cancer patients [7]; [13],26 (10.6) Number of patients (%)
same,"Platelets, NCI-CTC Grade 3",cancer patients [7]; [13],31 (12.6) Number of patients (%)
same,"Platelets, NCI-CTC Grade 4",cancer patients [7]; [13],14 (5.6) Number of patients (%)
same,"SGOT/AST, NCI-CTC Grade 1",cancer patients [7]; [13],17 (7.2) Number of patients (%)
same,"SGOT/AST, NCI-CTC Grade 2",cancer patients [7]; [13],29 (12.3) Number of patients (%)
same,"SGOT/AST, NCI-CTC Grade 3",cancer patients [7]; [13],117 (49.7) Number of patients (%)
same,"SGOT/AST, NCI-CTC Grade 4",cancer patients [7]; [13],58 (24.6) Number of patients (%)
same,"SGPT/ALT, NCI-CTC Grade 1",cancer patients [7]; [13],13 (5.5) Number of patients (%)
same,"SGPT/ALT, NCI-CTC Grade 2",cancer patients [7]; [13],19 (8.1) Number of patients (%)
same,"SGPT/ALT, NCI-CTC Grade 3",cancer patients [7]; [13],107 (45.7) Number of patients (%)
same,"SGPT/ALT, NCI-CTC Grade 4",cancer patients [7]; [13],87 (37.1) Number of patients (%)
same,"Increased transaminases (grade 3-4), cycles","cancer patients [7]; 3 hour schedule, % of cycles",58.3%
same,Grades 1-3 of bilirubin,"cancer patients [7]; 3 hour schedule, % of patients",45%
same,"Increased transaminases (grade 3-4), patients","cancer patients [7]; 3 hour schedule, % of patients",83.4%
same,alkaline phosphatase overall,"cancer patients [7]; 3 hour schedule, % of patients",58.6%
same,grade 1 alkaline phosphatase,"cancer patients [7]; 3 hour schedule, % of patients",50.4%
same,grade 2 alkaline phosphatase,"cancer patients [7]; 3 hour schedule, % of patients",6.5%
same,grade 3 alkaline phosphatase,"cancer patients [7]; 3 hour schedule, % of patients",1.7%
same,recommended dose,"cancer patients [7]; 3 hour schedule, at present (reduced)",1300 μg/m^2
same,Grade 3-4 ALT,cancer patients [7]; 3 h schedule every three weeks,82.8%
same,Grade 3-4 Bilirubin,cancer patients [7]; 3 h schedule every three weeks,2.6%
same,Grade 3-4 Creatinine,cancer patients [7]; 3 h schedule every three weeks,2.3%
same,Grade 3-4 Creatinine Kinase,cancer patients [7]; 3 h schedule every three weeks,1.5%
same,Grade 3-4 Hemoglobin,cancer patients [7]; 3 h schedule every three weeks,11.3%
same,Grade 3-4 Neutrophils,cancer patients [7]; 3 h schedule every three weeks,58.3%
same,Grade 3-4 Platelets,cancer patients [7]; 3 h schedule every three weeks,18.7%
same,"Creatinine abnormalities, NCI-CTC Grade 1",cancer patients [7]; [14],44 (20.1)
same,"Creatinine abnormalities, NCI-CTC Grade 2",cancer patients [7]; [14],10 (4.6)
same,"Creatinine abnormalities, NCI-CTC Grade 3",cancer patients [7]; [14],5 (2.3)
same,"Creatinine abnormalities, NCI-CTC Grade 4",cancer patients [7]; [14],0 ^
same,grade 3 ALT,cancer patients [7]; [15],38%
same,grade 4 ALT,cancer patients [7]; [15],8.5%
